This is an account of results in patent US11052092B2, “N-{[2-(piperidin-1-yl)phenyl](phenyl)methyl}-2-(3-oxo-3,4-dihydro-2H-1,4-benzoxazin-7-yl)acetamide derivatives and related compounds as ROR-gamma modulators for treating autoimmune diseases” (Genfit, priority 2017, dated 2021).

SMILES strings stand for the structures. Counter-ions that a name gives are not always drawn.

`Cc1ccc(C(NC(=O)Cc2ccc3c(c2)CC(=O)N3)c2ccc(Cl)o2)c(N2CCCCC2)c1` (centres unmarked) (as salt: HCl) [Cpd. 83, N-[(5-chlorofuran-2-yl)[4-methyl-2-(piperidin-1-yl)phenyl]methyl]-2-(2-oxo-2,3-dihydro-1H-indol-5-yl)acetamide] yielded a melting point of 105 °C.

In turn, `Cc1ccc(C(NC(=O)C2(c3ccc4c(c3)CC(=O)N4)CC2)c2ccc(Cl)o2)c(C)c1` (centres unmarked) (as salt: HCl) [Cpd. 86, N-[(5-chlorofuran-2-yl)(2,4-dimethylphenyl)methyl]-1-(2-oxo-2,3-dihydro-1H-indol-5-yl)cyclopropane-1-carboxamide] had a melting point of 78 °C. `Cc1ccc(C(NC(=O)C2(c3ccc4c(c3)CS(=O)(=O)N4)CC2)c2ccc(Cl)o2)c(C)c1` (centres unmarked) (as salt: HCl) [Cpd. 87, N-[(5-chlorofuran-2-yl)(2,4-dimethylphenyl)methyl]-1-(2,2-dioxo-1,3-dihydro-2,1-benzothiazol-5-yl)cyclopropane-1-carboxamide] had a melting point of 86 °C. The value for `CCOc1nc2cc(CC(=O)NC(c3ccccc3)c3ccc(C)cc3Br)ccc2[nH]1` (centres unmarked) (as salt: HCl) [Cpd. 90, N-[(2-bromo-4-methylphenyl)(phenyl)methyl]-2-(2-ethoxy-1H-1,3-benzodiazol-5-yl)acetamide] was 189 °C; that for `CSc1ccc2cc(CC(=O)NC(c3ccc(C)o3)c3ccc(C)cc3N3CCCCC3)ccc2c1` (centres unmarked) (as salt: HCl) [Cpd. 91, N-{[4-methyl-2-(piperidin-1-yl)phenyl](5-methylfuran-2-yl)methyl}-2-[6-(methylsulfanyl)naphthalen-2-yl]acetamide] was 134 °C; that for `Cc1ccc(C(NC(=O)Cc2ccc3[nH]c(N4CCOCC4)nc3c2)c2ccc(C)o2)c(N2CCCCC2)c1` (centres unmarked) (as salt: HCl) [Cpd. 93, N-{[4-methyl-2-(piperidin-1-yl)phenyl](5-methylfuran-2-yl)methyl}-2-[2-(morpholin-4-yl)-1H-1,3-benzodiazol-5-yl]acetamide] was 125 °C. Next, `Cc1ccc(C(NC(=O)C2(c3ccc4c(c3)CCN4C(=O)C3CC3)CC2)c2ccc(C)o2)c(C)c1` (centres unmarked) (as salt: HCl) [Cpd. 95, 1-(1-cyclopropanecarbonyl-2,3-dihydro-1H-indol-5-yl)-N-[(2,4-dimethylphenyl)(5-methylfuran-2-yl)methyl]cyclopropane-1-carboxamide]: 70 °C; `Cc1ccc(C(NC(=O)Cc2ccc3c(ccn3CCC(=O)OC(C)(C)C)c2)c2ccc(C)o2)c(N2CCCCC2)c1` (centres unmarked) (as salt: HCl) [Cpd. 96, tert-butyl 3-{5-[({[4-methyl-2-(piperidin-1-yl)phenyl](5-methylfuran-2-yl)methyl}carbamoyl)methyl]-1H-indol-1-yl}propanoate]: 50 °C. Next, `Cc1ccc(C(NC(=O)Cc2ccc3[nH]cc(CCS(C)(=O)=O)c3c2)c2ccc(C)o2)c(N2CCCCC2)c1` (centres unmarked) (as salt: HCl) [Cpd. 98, 2-[3-(2-methanesulfonylethyl)-1H-indol-5-yl]-N-{[4-methyl-2-(piperidin-1-yl)phenyl](5-methylfuran-2-yl)methyl}acetamide]: 107 °C. `Cc1ccc(C(NC(=O)Cc2ccc3c(ccn3CCC(=O)OC(C)(C)C)c2)c2ccc(C)o2)c(C)c1` (centres unmarked) (as salt: HCl) [Cpd. 99, tert-butyl 3-[5-({[(2,4-dimethylphenyl)(5-methylfuran-2-yl)methyl]carbamoyl}methyl)-1H-indol-1-yl]propanoate]: the melting point worked out at 39 °C. The value for `Cc1ccc(C(NC(=O)Cc2ccc3c(ccn3CCC(=O)OC(C)(C)C)c2)c2ccc(C)o2)c(Br)c1` (centres unmarked) (as salt: HCl) [Cpd. 100, tert-butyl 3-[5-({[(2-bromo-4-methylphenyl)(5-methylfuran-2-yl)methyl]carbamoyl}methyl)-1H-indol-1-yl]propanoate] was 149 °C.
